For 25 molecules, IC50 results are on record in patent US20240343704A1, “HALO-SUBSTITUTED AMINO PYRIDINE COMPOUNDS AS INHIBITORS OF THE HAEMATOPOIETIC PROGENITOR KINASE 1 (HPK1)” (priority 2021, published 2024).

The target in assay [1] is T1, Recombinant (1-346) HPK1 (h) (Homo sapiens, UniProt Q92918).
T1 construct: Recombinant (1-346) HPK1 (h) is incubated with 8 mM MOPS pH 7.0
T1 sequence (Q92918 1-346): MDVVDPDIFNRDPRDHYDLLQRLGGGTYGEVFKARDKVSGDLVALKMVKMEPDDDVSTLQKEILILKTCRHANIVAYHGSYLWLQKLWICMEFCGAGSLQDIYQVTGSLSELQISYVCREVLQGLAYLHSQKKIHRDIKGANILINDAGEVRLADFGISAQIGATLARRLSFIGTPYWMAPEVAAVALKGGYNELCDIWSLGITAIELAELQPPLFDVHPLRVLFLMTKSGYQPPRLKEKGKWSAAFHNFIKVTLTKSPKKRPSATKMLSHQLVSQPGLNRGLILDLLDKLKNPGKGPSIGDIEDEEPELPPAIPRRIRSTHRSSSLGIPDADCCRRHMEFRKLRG
The experiment in a line: HPK1 Human STE Kinase Enzymatic Radiometric Assay. Type of assay: biochemical. The settings on record: read-out: HPK1 IC50 nM Range*. How it is done: A stock solution of 10 mM of test compound is prepared in DMSO. The compound plate was prepared by 3-fold and 9-point serial dilutions. […] The reaction is initiated by The addition of the Mg/ATP mix. After incubation for 40 minutes at RT, the reaction is stopped by the addition of phosphoric acid to a concentration of 0.5%.

The target in a further assay is Lck (h) (Homo sapiens, UniProt P06239). The experiment in a line: Lck Human  Kinase Enzymatic Radiometric Assay. Type of assay: biochemical. The settings on record: read-out: Lck IC50 nM Range*. The gist of the method:
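Substrate 33P-incorporation measured by scintillation counting after spotting on P30 filtermat and phosphoric acid washes. Human Lck reacted 40 min at RT in 50 mM Tris pH 7.5 with 10 mM MgAcetate, [gamma-33P]-ATP, 250 uM Cdc2 peptide, 0.1 mM EGTA and 0.1 mM Na3VO4.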

Lck (h), sequence (P06239 whole entry): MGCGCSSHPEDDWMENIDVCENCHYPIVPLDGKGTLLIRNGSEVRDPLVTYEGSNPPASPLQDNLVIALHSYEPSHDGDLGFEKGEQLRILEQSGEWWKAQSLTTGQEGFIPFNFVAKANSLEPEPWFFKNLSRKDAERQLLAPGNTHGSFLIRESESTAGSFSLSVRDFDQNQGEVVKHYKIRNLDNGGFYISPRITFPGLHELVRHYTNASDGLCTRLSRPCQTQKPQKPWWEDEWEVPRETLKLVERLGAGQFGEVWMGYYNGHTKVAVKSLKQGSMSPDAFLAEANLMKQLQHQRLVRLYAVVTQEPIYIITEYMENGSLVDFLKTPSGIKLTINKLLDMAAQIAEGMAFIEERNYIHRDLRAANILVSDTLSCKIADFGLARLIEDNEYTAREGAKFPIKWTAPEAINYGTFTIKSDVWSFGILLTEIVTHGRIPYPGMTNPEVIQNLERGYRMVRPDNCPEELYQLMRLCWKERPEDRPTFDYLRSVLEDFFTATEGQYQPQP

For `Nc1nc(F)c(-c2ccc(N3CCN(CC4CC4)CC3)cc2)cc1-c1cc2nc[nH]c(=O)c2cc1F` [I-408, 7-(2-amino-5-(4-(4-(cyclopropylmethyl)piper-azin-1-yl)phenyl)-6-fluoropyridin-3-yl)-6-fluoroquinazolin-4(3H)-one], the half-maximal inhibitory concentration (IC50) (commonly the concentration at which inhibition is half-maximal) in assay [1] is 0.1 to 10 nM; on Lck (h), greater than 1000 nM.
On to `CN(CC(F)(F)F)C1CCN(c2ccc(-c3cc(-c4ccc5c(c4)CCNC5=O)c(N)nc3F)cc2)C1` (centres unmarked) [I-159, 6-(2-amino-6-fluoro-5-(4-(3-(methyl(2,2,2-trifluoroethyl)amino)pyrrolidin-1-yl)phenyl)pyridin-3-yl)-3,4-dihydroisoquinolin-1(2H)-one], for which the values for the IC50 (in assay [1]; at Lck (h)) were 0.1 to 10 nM and greater than 1000 nM, respectively.
In the same order, the values of `CC(C)N1CCCCC1c1ccc(-c2cc(-c3ccc4c(c3)CCNC4=O)c(N)nc2F)cc1` (centres unmarked) [I-104, 6-(2-amino-6-fluoro-5-(4-(1-isopropylpiperidin-2-yl)phenyl)pyridin-3-yl)-3,4-dihydroisoquinolin-1(2H)-one] are 0.1 to 10 nM and greater than 1000 nM.
Consider `Nc1nc(F)c(-c2cc3n(n2)CC(=O)NCC3)cc1-c1ccc2c(c1)CCNC2=O` [I-229, 2-(6-amino-2-fluoro-5-(1-oxo-1,2,3,4-tetrahydroisoquinolin-6-yl)pyridin-3-yl)-5,6-dihydro-4H-pyrazolo[1,5-d][1,4]diazepin-7(8H)-one], for which the IC50 in assay [1] is 11 to 100 nM; at Lck (h), greater than 1000 nM.
Take `Cc1nc2cc(-c3cc(-c4ccc(N5CCN(CC6CC6)CC5)cc4)c(F)nc3N)ccc2c(=O)[nH]1` [I-411, 7-(2-amino-5-(4-(4-(cyclopropylmethyl)piper-azin-1-yl)phenyl)-6-fluoropyridin-3-yl)-2-methylquinazolin-4(3H)-one]: the values for the IC50 (in assay [1]; at Lck (h)) were 11 to 100 nM and greater than 1000 nM, respectively.
In the same order, the values of `CC(C)(C)OC(=O)N1CCC2(CCc3cc(-c4cc(-c5ccc6c(c5)CCNC6=O)c(N)nc4F)ccc3O2)CC1` [I-175, tert-butyl 6-(6-amino-2-fluoro-5-(1-oxo-1,2,3,4-tetrahydroisoquinolin-6-yl)pyridin-3-yl)spiro[chromane-24′-piperidine]-1′-carboxylate] are 101 to 1000 nM and greater than 1000 nM.
For the molecule `Nc1nc(F)c(-c2ccc(S(=O)(=O)C3CC3)cc2)cc1-c1ccc2c(c1)CCNC2=O` [I-63, 6-(2-amino-5-(4-(cyclopropylsulfonyl)phenyl)-6-fluoropyridin-3-yl)-3,4-dihydroisoquinolin-1(2H)-one], the IC50 in assay [1] was 0.1 to 10 nM; at Lck (h) it was greater than 1000 nM.
As to `Nc1nc(F)c(-c2ccc(N3CCCN4CCCC4C3)cc2)cc1-c1ccc2c(c1)CCNC2=O` (centres unmarked) [I-281, 6-(2-amino-6-fluoro-5-(4-(hexahydro-1H-pyrrolo[1,2-a][1,4]diazepin-2(3H)-yl)phenyl)pyridin-3-yl)-3,4-dihydroisoquinolin-1(2H)-one], the figures for the IC50 (in assay [1]; on Lck (h)) were 0.1 to 10 nM and greater than 1000 nM, respectively.
The matching figures for `CC(=O)N1CCC(Oc2ccc(-c3cc(-c4cc5c(cc4F)C(=O)NCC5)c(N)nc3F)cc2)CC1` [I-327, 6-(5-(4-((1-acetylpiperidin-4-yl)oxy)phenyl)-2-amino-6-fluoropyridin-3-yl)-7-fluoro-3,4-dihydroisoquinolin-1(2H)-one]: 0.1 to 10 nM and greater than 1000 nM.
For the molecule `CC(C)N1CCC(F)(c2ccc(-c3cc(-c4ccc5c(c4)CCNC5=O)c(N)nc3F)cc2)CC1` [I-239, 6-(2-amino-6-fluoro-5-(4-(4-fluoro-1-isopropylpiperidin-4-yl)phenyl)pyridin-3-yl)-3,4-dihydroisoquinolin-1(2H)-one], the 50% inhibitory concentration (IC50) is 0.1 to 10 nM in assay [1] and greater than 1000 nM at Lck (h).
On to `Nc1nc(F)c(-c2ccc(OC3CCN(CC4CC4)CC3)cc2)cc1-c1ccc2c(c1)CCNC2=O` [I-322, 6-(2-amino-5-(4-((1-(cyclopropylmethyl)piperidin-4-yl)oxy)phenyl)-6-fluoropyridin-3-yl)-3,4-dihydroisoquinolin-1(2H)-one], for which the IC50 in assay [1] is 0.1 to 10 nM; on Lck (h) it was greater than 1000 nM.
Regarding `CN1CCN(C(=O)c2cccc(-c3cc(-c4ccc5c(c4)CCNC5=O)c(N)nc3F)c2)CC1` [I-331, 6-(2-amino-6-fluoro-5-(3-(4-methylpiperazine-1-carbonyl)phenyl)pyridin-3-yl)-3,4-dihydroisoquinolin-1(2H)-one], the IC50 in assay [1] was 101 to 1000 nM; at Lck (h) it was greater than 1000 nM.
Turning to `Nc1nc(F)c(-c2ccc(N3CCN(CCC4CC4)CC3)cc2)cc1-c1ccc2c(=O)[nH]ccc2c1` [I-389, 6-(2-amino-5-(4-(4-(2-cyclopropylethyl)piperazin-1-yl)phenyl)-6-fluoropyridin-3-yl)isoquinolin-1(2H)-one], the IC50 was 0.1 to 10 nM in assay [1] and greater than 1000 nM at Lck (h).
The matching figures for `CC(C)N1CCN(c2ccc(-c3cc(-c4ccc5c(=O)[nH]ncc5c4)c(N)nc3F)cc2)CC1` [I-363, 6-(2-amino-6-fluoro-5-(4-(4-isopropylpiperazin-1-yl)phenyl)pyridin-3-yl)phthalazin-1(2H)-one]: 11 to 100 nM and greater than 1000 nM.
Consider `Nc1nc(F)c(-c2ccc(C3COCCN3C3COC3)cc2)cc1-c1ccc2c(c1)CCNC2=O` (centres unmarked) [I-154, 6-(2-amino-6-fluoro-5-(4-(4-(oxetan-3-yl)morpholin-3-yl)phenyl)pyridin-3-yl)-3,4-dihydroisoquinolin-1(2H)-one], for which the IC50 was 11 to 100 nM in assay [1] and greater than 1000 nM on Lck (h).
The matching figures for `CC(=O)N1CCN(c2ccc(-c3cc(-c4ccc5c(c4)CCNC5=O)c(N)nc3F)nc2)CC1` [I-591, 6-(5-(4-acetylpiperazin-1-yl)-6′-amino-2′-fluoro-[2,3′-bipyridin]-5′-yl)-3,4-dihydroisoquinolin-1(2H)-one]: 0.1 to 10 nM and greater than 1000 nM.
Take `COCCN(C)[C@@H]1CCN(c2ccc(-c3cc(-c4ccc5c(c4)CCNC5=O)c(N)nc3F)cc2)C1` [I-160, (R)-6-(2-amino-6-fluoro-5-(4-(3-((2-methoxyethyl)(methyl)amino)pyrrolidin-1-yl)phenyl)pyridin-3-yl)-3,4-dihydroisoquinolin-1(2H)-one]: the IC50 is 0.1 to 10 nM in assay [1] and greater than 1000 nM at Lck (h).
With `Cc1nc2cc(-c3cc(-c4ccc(N5CCN(C(C)C)CC5)cc4)c(F)nc3N)c(F)cc2c(=O)[nH]1` [I-439, 7-(2-amino-6-fluoro-5-(4-(4-isopropylpiperazin-1-yl)phenyl)pyridin-3-yl)-6-fluoro-2-methylquinazolin-4(3H)-one], the IC50 in assay [1] is 11 to 100 nM; on Lck (h) it was greater than 1000 nM.
Take `Nc1nc(F)c(-c2ccc(OC3CCNCC3)cc2)cc1-c1ccc2c(c1)CCNC2=O` [I-22, 6-(2-amino-6-fluoro-5-(4-(piperidin-4-yloxy)phenyl)pyridin-3-yl)-3,4-dihydroisoquinolin-1(2H)-one]: the half-maximal inhibitory concentration (IC50) was 0.1 to 10 nM in assay [1] and greater than 1000 nM on Lck (h).
In the same order, the values of `CC(=O)N1CCC(Oc2ccc(-c3cc(-c4ccc5c(c4)CCNC5=O)c(N)nc3F)cc2)CC1` [I-34, 6-(5-(4-((1-acetylpiperidin-4-yl)oxy)phenyl)-2-amino-6-fluoropyridin-3-yl)-3,4-dihydroisoquinolin-1(2H)-one] are 0.1 to 10 nM and greater than 1000 nM.
On to `CC(=O)N1CCC(Oc2ccc(-c3cc(-c4ccc5c(c4)CCNC5=O)c(N)nc3F)cc2C(F)(F)F)CC1` [I-199, 6-(5-(4-((1-acetylpiperidin-4-yl)oxy)-3-(trifluoromethyl)phenyl)-2-amino-6-fluoropyridin-3-yl)-3,4-dihydroisoquinolin-1(2H)-one], for which the figures for the IC50 (in assay [1]; at Lck (h)) were 11 to 100 nM and greater than 1000 nM, respectively.
For `CC(C)(C)OC(=O)N1CCC(Oc2ccc(-c3cc(-c4ccc5c(c4)CCNC5=O)c(N)nc3F)cc2C#N)CC1` [I-176, tert-butyl 4-(4-(6-amino-2-fluoro-5-(1-oxo-1,2,3,4-tetrahydroisoquinolin-6-yl)pyridin-3-yl)-2-cyanophenoxy)piperidine-1-carboxylate], the IC50 was 11 to 100 nM in assay [1] and greater than 1000 nM on Lck (h).
The matching figures for `Nc1nc(F)c(-c2ccc(N3CCN(CC(F)(F)F)CC3)cc2)cc1-c1cc2c(cc1F)C(=O)NCC2` [I-237, 6-(2-amino-6-fluoro-5-(4-(4-(2,2,2-trifluoroethyl)piperazin-1-yl)phenyl)pyridin-3-yl)-7-fluoro-3,4-dihydroisoquinolin-1(2H)-one]: 0.1 to 10 nM and greater than 1000 nM.
The matching figures for `CN1CCCN(c2ccc(-c3cc(-c4ccc5c(c4)CCNC5=O)c(N)nc3F)cc2)CC1` [I-277, 6-(2-amino-6-fluoro-5-(4-(4-methyl-1,4-diazepan-1-yl)phenyl)pyridin-3-yl)-3,4-dihydroisoquinolin-1(2H)-one]: 0.1 to 10 nM and greater than 1000 nM.
With `CC(C)N1C[C@@H]2C[C@]2(c2ccc(-c3cc(-c4ccc5c(c4)CCNC5=O)c(N)nc3F)cc2)C1` [I-111, 6-(2-amino-6-fluoro-5-(4-((1S,5R)-3-isopropyl-3-azabicyclo[3.1.0]hexan-1-yl)phenyl)pyridin-3-yl)-3,4-dihydroisoquinolin-1(2H)-one 2,2,2-trifluoroacetate], the values for the IC50 (in assay [1]; on Lck (h)) were 0.1 to 10 nM and greater than 1000 nM, respectively.
